Laboratory results: US20200157048A1, “(2E,4E)-5-PHENYL-PENTA-2,4-DIEN-1-ONE DERIVATIVE” (BIOWAY., INC, priority 2018, published 2020)

How the values were obtained:
Type in all cases: cell-based, Human
Conditions in all cases: steatosis-induced (OA/PA) Huh-7 cells; 10 μM; 24 hours
Ck2α mRNA = experiment: qRT-PCR Ck2α mRNA level in steatosis-induced Huh-7 cells
Experimental: (§1) In Experimental Example 5, the Huh-7 cells were plated in 6 wells at 4×10^5 cells/mL and incubated under an atmosphere containing 5% CO2 at 37° C.
(§2) One day later, the cell density approached about 80 to 90%. The medium was changed to an FBS-free RPMI1640 medium, and incubated under an atmosphere containing 5% CO2 at 37° C. for 24 hours.
(§3) Huh-7 cells of each well, excluding control cells, were pretreated with an OA/PA mixture for one hour to induce steatosis. The control cells were pretreated with 1% FA-free BSA.
(§4) Each well was treated with 10 μM of a test compound, and then the cells were incubated for 24 hours. The control cells and OA/PA-treated cells were treated with DMSO. Cells of a positive control were treated with 10 μM of resveratrol, 10 μM of piperine, and 10 μM of YU2014. The medium was entirely aspirated, and the cells were washed with PBS (phosphate buffered saline, Corning, Manassas, Va., USA) two times.
(§5) Total RNA was extracted using a RNeasy RNA isolation kit (Qiagen, Hilden, Germany).
(§6) 10 μL of β-mercaptoethanol (Sigma-Aldrich) per 1 mL of lysis buffer was added, thereby preparing an RNA lysis buffer. […]
(§7) An RNA concentration was measured at O.D. 260 nm using a nanophotometer N60 (Implen, Munich, Germany). The concentration and purity of RNA were measured at O.D. 260/280 nm and calculated as a ratio. […]
(§8) Quantitative analyses for the genes in Table 3 were performed.

Fgf21 mRNA = experiment: qRT-PCR Fgf21 mRNA level in steatosis-induced Huh-7 cells
Experimental: as §1, §2, §3, §4, §5, §6, §7, §8

Pparα mRNA = experiment: qRT-PCR Pparα mRNA level in steatosis-induced Huh-7 cells
Experimental: as §1, §2, §3, §4, §5, §6, §7, §8

Sirt1 mRNA = experiment: qRT-PCR Sirt1 mRNA level in steatosis-induced Huh-7 cells
Experimental: as §1, §2, §3, §4, §5, §6, §7, §8

Row | SMILES | Ck2α mRNA level (FIG. 19) (Ck2α mRNA) | Fgf21 mRNA level (FIG. 12) (Fgf21 mRNA) | Pparα mRNA level (FIG. 10) (Pparα mRNA) | Sirt1 mRNA level (FIG. 16) (Sirt1 mRNA)
1 | CCOC(=O)N1CCN(C(=O)/C=C/C=C/c2ccc(SC)cc2)CC1 [R-24, Ethyl 4-((2E,4E)-5-(4-(methylthio)phenyl)penta-2,4-dienoyl)piperazine-1-carboxylate] | greatly reduced |  |  | 
2 | O=C(/C=C/C=C/c1ccc2c(c1)OCO2)N1CCCCC1 [piperine, Piperine] |  | no effect | no effect | 
3 | CCOC(=O)N1CCN(C(=O)/C=C/C=C/c2ccc(OC)cc2)CC1 [R-23, Ethyl 4-((2E,4E)-5-(4-methoxyphenyl)penta-2,4-dienoyl)piperazine-1-carboxylate] |  |  |  | greatly increased
4 | CCC(=O)N1CCN(C(=O)/C=C/C=C/c2ccc(OC)cc2)CC1 [R-18, (2E,4E)-5-(4-methoxyphenyl)-1-(4-propionylpiperazine-1-yl)penta-2,4-dien-1-one] | greatly reduced |  |  | greatly increased
